Patent publication US8765730B2 (Hoffmann-La Roche Inc, priority 2010, dated 2014)
Structures can show the parent of a compound that is named as a salt.

Test system: not given
Assay: not given
Details: IV infusion (0.8 μmol/kg/min) for 90 min, obese and normal human subjects, over 24 hours; cited from earlier work

Row | Compound | reduced food intake
1 | PYY3-36 | 33%

Molecular target: T1, human GPBAR1 receptor (Homo sapiens, UniProt Q8TDU6)
T1 construct: expressed in transfected cells
T1 sequence (Q8TDU6 1-330): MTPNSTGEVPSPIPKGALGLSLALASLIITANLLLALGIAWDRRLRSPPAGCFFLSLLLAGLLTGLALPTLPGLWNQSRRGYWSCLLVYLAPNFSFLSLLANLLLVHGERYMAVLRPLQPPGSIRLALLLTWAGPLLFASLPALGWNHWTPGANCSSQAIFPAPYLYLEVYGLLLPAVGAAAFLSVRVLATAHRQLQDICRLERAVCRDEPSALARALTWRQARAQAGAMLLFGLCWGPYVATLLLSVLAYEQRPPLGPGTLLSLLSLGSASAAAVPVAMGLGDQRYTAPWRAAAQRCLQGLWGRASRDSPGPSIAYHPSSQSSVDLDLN
Assay: functional cAMP assay in CHO-dhfr(minus) cells expressing human GPBAR1 receptors
Type: cell-based
Details: human EC50, functional cAMP assay, 30 min at 30° C.
Summary of the method: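 Agonist cAMP read-out: stable GPBAR1 CHO-dhfr− clone, 30 min compound exposure at 30° C following 30 min IBMX (1 mM) preincubation in Krebs Ringer bicarbonate. Time-resolved energy-transfer detection gives EC50; parental CHO cells serve as counter-screen.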

Row | Compound | EC50
2 | Cc1ccccc1[C@H](C/C(=N\O)c1ccc(=O)n(C)c1)c1ccc(N2CCC(C(=O)O)CC2)cc1 [Example 497, Sodium (R,E)-1-(4-(3-(Hydroxyimino)-3-(1-methyl-6-oxo-1,6-dihydropyridin-3-yl)-1-o-tolylpropyl)phenyl)piperidine-4-carboxylate] | 41 nM
3 | Cc1ccccc1[C@H](C/C(=N\O)c1ccc(=O)n(C)c1)c1ccc(C#N)cc1 [Example 498, (R,E)-4-(3-(Hydroxyimino)-3-(1-methyl-6-oxo-1,6-dihydropyridin-3-yl)-1-o-tolylpropyl)benzonitrile] | 7 nM
4 | Cc1ccccc1[C@H](C/C(=N/O)c1ccc(=O)n(C)c1)c1ccc(C#N)cc1 [Example 499, (R,Z)-4-(3-(hydroxyimino)-3-(1-methyl-6-oxo-1,6-dihydropyridin-3-yl)-1-o-tolylpropyl)benzonitrile] | 4500 nM
5 | Cc1ccccc1[C@H](C/C(=N\O)c1ccc(=O)n(C)c1)c1ccc(-c2nnn[nH]2)cc1 [Example 500, (R,E)-5-(3-(4-(1H-Tetrazol-5-yl)phenyl)-1-(hydroxyimino)-3-o-tolylpropyl)-1-methyl-pyridin-2(1H)-one, sodium salt] | 268 nM
6 | Cc1ccccc1[C@@H](C/C(=N\O)c1cnc(=O)n(C)c1)c1ccc(Br)cc1 [Example 501, (S,E)-5-(3-(4-Bromophenyl)-1-(hydroxyimino)-3-o-tolylpropyl)-1-methylpyrimidin-2(1H)-one] | 225 nM
7 | Cc1ccccc1[C@@H](C/C(=N\O)c1cnc(=O)n(C)c1)c1ccc(S(C)(=O)=O)cc1 [Example 502, (S,E)-5-(1-(Hydroxyimino)-3-(4-(methylsulfonyl)phenyl)-3-o-tolylpropyl)-1-methyl-pyrimidin-2(1H)-one] | 477 nM
8 | Cc1cc(/C(C[C@H](c2ccc(C3CCC(C(=O)O)CC3)cc2)c2ccc(Cl)cc2C)=N/O)ccn1 (stereo partly drawn) [Example 503, (R,E)-4-(4-(1-(4-Chloro-2-methylphenyl)-3-(hydroxyimino)-3-(2-methylpyridin-4-yl)propyl)phenyl)cyclohexanecarboxylic acid] | 25 nM
9 | Cc1cc(/C(C[C@H](c2ccc([C@H]3CC[C@H](C(=O)O)CC3)cc2)c2ccc(Cl)cc2C)=N/O)ccn1 [Example 504, Trans-4-(4-((R,E)-1-(4-Chloro-2-methylphenyl)-3-(hydroxyimino)-3-(2-methylpyridin-4-yl)propyl)phenyl)cyclohexanecarboxylic acid] | 28 nM
10 | Cc1cc(/C(C[C@H](c2ccc([C@H]3CC[C@@H](C(=O)O)CC3)cc2)c2ccc(Cl)cc2C)=N/O)ccn1 [Example 505, cis-4-(4-((R,E)-1-(4-chloro-2-methylphenyl)-3-(hydroxyimino)-3-(2-methylpyridin-4-yl)propyl)phenyl)cyclohexanecarboxylic acid] | 13 nM
11 | Cc1ccccc1[C@H](C/C(=N\O)c1ccc(=O)n(C)c1)c1ccc(C2CCN(C(=O)OC(C)(C)C)CC2)cc1 [Example 506, (R,E)-tert-Butyl 4-(4-(3-(hydroxyimino)-3-(1-methyl-6-oxo-1,6-dihydropyridin-3-yl)-1-o-tolylpropyl)phenyl)piperidine-1-carboxylate] | 634 nM
12 | Cc1ccccc1[C@H](C/C(=N\O)c1ccc(=O)n(C)c1)c1ccc(C2CCNCC2)cc1 [Example 507, (R,E)-5-(1-(Hydroxyimino)-3-(4-(piperidin-4-yl)phenyl)-3-o-tolylpropyl)-1-methylpyridin-2(1H)-one] | 2370 nM
13 | CC(=O)N1CCC(c2ccc([C@@H](C/C(=N\O)c3ccc(=O)n(C)c3)c3ccccc3C)cc2)CC1 [Example 508, (R,E)-5-(3-(4-(1-Acetylpiperidin-4-yl)phenyl)-1-(hydroxyimino)-3-o-tolylpropyl)-1-methylpyridin-2(1H)-one] | 405 nM
14 | Cc1ccccc1[C@H](C/C(=N\O)c1ccc(=O)n(C)c1)c1ccc(C2CCN(S(C)(=O)=O)CC2)cc1 [Example 509, (R,E)-5-(1-(Hydroxyimino)-3-(4-(1-(methylsulfonyl)piperidin-4-yl)phenyl)-3-o-tolylpropyl)-1-methylpyridin-2(1H)-one] | 99 nM
15 | Cc1ccccc1[C@H](C/C(=N\O)c1ccc(=O)n(C)c1)c1ccc(C2CCN(S(N)(=O)=O)CC2)cc1 [Example 510, (R,E)-4-(4-(3-(Hydroxyimino)-3-(1-methyl-6-oxo-1,6-dihydropyridin-3-yl)-1-o-tolylpropyl)phenyl)piperidine-1-sulfonamide] | 48 nM
16 | CC(=O)N1CCC(c2ccc([C@@H](C/C(=N\O)c3ccnc(C)c3)c3ccc(Cl)cc3C)cc2)CC1 [Example 511, (R,E)-1-(4-(4-(1-(4-Chloro-2-methylphenyl)-3-(hydroxyimino)-3-(2-methylpyridin-4-yl)propyl)phenyl)piperidin-1-yl)ethanone] | 36 nM
